Source: patent US6475531B1, “Safe botanical drug for treatment and prevention of influenza and increasing immune function” (priority 2001, dated 2002)
Converted amounts (≈) assume the structure as drawn.

Key:
Type in all cases: cell-based, influenza A viruses
A/England/939/69 = experiment: Plaque inhibition assay in MDCK cells; details: Influenza A virus
A/Brazil/11/78 (H1N1) = experiment: Plaque inhibition assay in MDCK cells; details: Influenza A virus
A/Singapore/1/75 (H2N2) = experiment: microbe, parasite or virus in culture; details: Influenza A virus, H2N2, MDCK
A/Beijing/32/92 (H3N2) = experiment: Plaque inhibition assay in MDCK cells; details: Influenza A virus

SMILES | IC50 (A/England/939/69) | IC50 (A/Brazil/11/78 (H1N1)) | IC50 (A/Singapore/1/75 (H2N2)) | IC50 (A/Beijing/32/92 (H3N2))
NC12CC3CC(CC(C3)C1)C2 [Amantadine] | 21 µg/mL (≈ 139 µM) | 38 µg/mL (≈ 251 µM) | 11 µg/mL (≈ 72.7 µM) | 25 µg/mL (≈ 165 µM)
NC(=O)c1ncn([C@@H]2O[C@H](CO)[C@@H](O)[C@H]2O)n1 [Ribavirin] | 46 µg/mL (≈ 188 µM) | 56 µg/mL (≈ 229 µM) | 82 µg/mL (≈ 336 µM) | 90 µg/mL (≈ 369 µM)
